The source of these data is patent US8586602B2, “Derivatives of 7 alkynyl-1,8 naphthyridones, preparation method thereof and use of same in therapeutics” (Sanofi, priority 2007, dated 2013).

Where “and” joins values, the source holds several entries; their conditions need not be identical. Equal entries are not always repeated. Structures can show the parent of a compound that is named as a salt.

T1 sequence (P35916 800-1297 limits assumed): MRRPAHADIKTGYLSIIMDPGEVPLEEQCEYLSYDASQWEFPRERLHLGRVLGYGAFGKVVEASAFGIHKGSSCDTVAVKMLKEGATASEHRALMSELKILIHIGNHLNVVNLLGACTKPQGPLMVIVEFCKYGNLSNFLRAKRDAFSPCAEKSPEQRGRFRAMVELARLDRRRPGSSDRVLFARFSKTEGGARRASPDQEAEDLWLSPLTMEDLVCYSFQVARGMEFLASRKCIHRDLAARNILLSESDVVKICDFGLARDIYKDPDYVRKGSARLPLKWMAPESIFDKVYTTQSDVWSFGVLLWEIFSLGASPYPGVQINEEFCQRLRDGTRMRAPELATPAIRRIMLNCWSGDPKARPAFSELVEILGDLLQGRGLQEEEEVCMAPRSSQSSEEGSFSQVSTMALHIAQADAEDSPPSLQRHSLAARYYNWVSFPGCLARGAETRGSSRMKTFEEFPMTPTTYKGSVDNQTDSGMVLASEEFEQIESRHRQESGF

Tested on in one series: not given
Experiment: not given
Settings: not given
For `CCn1c(N)c(C(=O)NC)c(=O)c2ccc(C#CC(C)(C)N)nc21` (as salt: hydrochloride) [Compound 4, 2-Amino-7-(3-amino-3-methylbut-1-yn-1-yl)-1-ethyl-N-methyl-4-oxo-1,4-dihydro-1,8-naphthyridine-3-carboxamide hydrochloride], the melting point worked out at 293 °C.
On the same count and under the same terms, the result for `CCn1c(N)c(C(=O)NC)c(=O)c2ccc(C#CC(C)(COC)OC)nc21` (racemic) [Compound 1, (±)-2-Amino-7-(3,4-dimethoxy-3-methylbut-1-yn-1-yl)-1-ethyl-N-methyl-4-oxo-1,4-dihydro-1,8-naphthyridine-3-carboxamide] reads 185 to 187 °C; that for `CCn1c(N)c(C(=O)NC)c(=O)c2ccc(C#CCNC(=O)OC)nc21` [Compound 2, Methyl {3-[7-amino-8-ethyl-6-(methylcarbamoyl)-5-oxo-5,8-dihydro-1,8-naphthyridin-2-yl]prop-2-yn-1-yl}carbamate], 255 °C and 250 °C.
In the case of `CCn1c(N)c(C(=O)NC)c(=O)c2ccc(C#CCOC)nc21` [Compound 5, 2-amino-1-ethyl-7-(3-methoxyprop-1-yn-1-yl)-N-methyl-4-oxo-1,4-dihydro-1,8-naphthyridine-3-carboxamide], the melting point was 233 °C.
Same read-out and setting: the result for `CCn1c(N)c(C(=O)NC)c(=O)c2ccc(C#CC(C)(C)OCC(N)=O)nc21` [Compound 6, 2-Amino-7-[3-(2-amino-2-oxoethoxy)-3-methylbut-1-yn-1-yl]-1-ethyl-N-methyl-4-oxo-1,4-dihydro-1,8-naphthyridine-3-carboxamide] reads 204 °C.

Another series concerns the target T1, VEGFR-3-TK (Homo sapiens, UniProt P35916).
T1 construct: purchased Cell Signaling 7790
Briefly: Measurement of the tyrosine kinase activity of VEGFR-3 by ELISA (phosphorylation of poly Glu-Tyr). In kind it is biochemical. The following applies: VEGFR-3 ELISA, poly Glu-Tyr substrate, 30 μM ATP, 30 min at ambient temperature; read-out: IC50 (concentration which decreases the total activity of the enzyme by 50%). The protocol: The compounds according to the invention have formed the subject of pharmacological assays which make it possible to determine their inhibitory effect on the VEGFR-3 enzyme.
Measurement of the Tyrosine Kinase Activity of VEGFR-3 by ELISA
The effect of the products is quantified by the concentration which decreases the total activity of the enzyme by 50% (IC50). For the determination of the IC50 values, the product is diluted in DMSO with a concentration range which extends from 3 to 1000 nM. The day before the manipulation, 125 μl of the poly Glu-Tyr substrate (250 μg/ml in 1×PBS without Ca^2+ or Mg^2+ or sodium bicarbonate) are deposited in each well of an ELISA plate (for example, an ELISA plate of the SIGMA Protein Tyrosine Kinase Assay kit, Ref. PTK-101). The plate is subsequently covered with an adhesive film and incubated overnight at 37° C. The following day, the wells are emptied by turning the plate over, washed by adding 300 μl of buffer solution (PBS+0.05% Tween 20) and dried by further incubation of the plate for 2 h at 37° C. A 90 μl reaction mixture is deposited onto each well. This mixture comprises the 1× kinase buffer to which 30 μM of ATP and the inhibitor at the desired concentration have been added. […]
In general terms: In an ELISA, binding on a coated surface is turned into a signal by an enzyme label.
Regarding `CCn1c(N)c(C(=O)NC)c(=O)c2ccc(C#CC(C)(C)N)nc21` [Compound 4, 2-Amino-7-(3-amino-3-methylbut-1-yn-1-yl)-1-ethyl-N-methyl-4-oxo-1,4-dihydro-1,8-naphthyridine-3-carboxamide hydrochloride], the IC50 was found to be 451 nM.
The same measure, in the same setting: in the case of `CCn1c(N)c(C(=O)NC)c(=O)c2ccc(C#CCOC)nc21` [Compound 5, 2-amino-1-ethyl-7-(3-methoxyprop-1-yn-1-yl)-N-methyl-4-oxo-1,4-dihydro-1,8-naphthyridine-3-carboxamide] it was 343 nM.

In general, melting point refers to the temperature of the solid-liquid transition.
